Test results from US7732487B2, “Method for treating a disease or condition responsive to opening of C1C-2 channel” (priority 2001, dated 2010).
Marks after values point to notes of the source that are not given here.

Experiments:
ddY male mice = test: Antianoxia effect: duration of gasping after beheading in mice; format: in vivo, mouse; conditions: 0.3 mg/kg subcutaneous, 30 minutes before beheading, Mean ± S.D.
Procedure: Test substance 1 of 0.3 mg/kg in 10 mL/kg of vehicle was subcutaneously administered to ddY male mice (5 weeks old, weight: 27-30 g). The control group received the vehicle. Thirty minutes after the administration, the mice were beheaded with guillotine. Duration of gasping shown after beheading was measured.

male white rabbit = test: Amount of lacrimal fluid and chloride ion concentration in lacrimal fluid in rabbit; format: in vivo; conditions: 0.001% eye drop, 30 μL/eye, two hours after instillation, Mean ± S.E.
Procedure: An eye drop composition comprising 0.001% of the test substance 1 was instilled to male white rabbit in the amount of 30 μL/eye. The control group received the same amount of eye drop vehicle. […] Then the amount of lacrimal fluid was measured from the length of wetting area on the paper filter with the scale on it. […] The collected lacrimal fluid was diluted five fold with distilled water and chloride ion concentration in the lacrimal fluid was measured with a chloride counter (CL-7, Hiranuma Sangyo Co. Ltd., Japan). Student's t-test and Wilcoxon's test were used in comparing the control group and the group receiving test substance 1. P values less than 0.05 were considered to be statistically significant.

male Wistar rats [1] = test: Indomethacin induced ulcer model; format: in vivo, rat; conditions: for Ulcer Coefficient: Mean ± S.E.
Procedure: (§1) Effects on acute ulcer was determined by means of water-immersion restraint stress induced ulcer model and indomethacin induced ulcer model.
(§2) Test substance 1 was orally administered to male Wistar rats (weight: 180-210 g) that had been fasted for 24 hours. In the water-immersion restraint stress induced ulcer model, 10 minutes after the oral administration of test substance 1, the rats were bound in a stress cage and immersed in water at 23° C. up to the level of their chest xiphisternums. Six hours after the immersion, the animals were killed by cervical dislocation. In the indomethacin induced ulcer model, immediately after the oral administration of test substance 1 or 2, indomethacin 10 mg/kg was orally administered. Five hours after the administration, the animals were killed by cervical dislocation. The stomachs removed from the animals were fixed with 1% formalin and then dissected along the greater curvatures. The major axis (mm) of each ulcer formed in the stomach was measured. The major axes of the ulcers in each animal were totaled, which were expressed as ulcer coefficients. Based on the ulcer coefficients of the control group and those of the groups receiving test substances, the ulcer inhibitory rates were calculated.

male Wistar rats [2] = test: Amount of intestinal fluid and chloride ion concentration in intestinal fluid in rat; format: in vivo; conditions: 30 minutes after administration, Mean ± S.E.
Procedure: Test substance 1: 13,14-dihydro-15-keto-16,16-difluoro-prostaglandin E1, which is a ClC-2 channel opener was used. The test substance 1 of 10 or 100 μg/kg in 5 mL/kg of the vehicle was orally administered to male Wistar rats (six weeks old, weight: 180-210 g) that had been fasted for at least 16 hours. The control group received the same volume of the vehicle (0.5% ethanol and 0.01% polysorbate 80 in distilled water). Thirty minutes after the administration, the animals underwent laparotomy under ether anesthesia. The first portion of the duodenum and end portion of the ileum were ligated respectively and the bowel was removed. The intestinal fluid of each animal was collected from the removed bowel and the amount was determined. After the intestinal fluid was centrifuged by 10,000×g for 5 minutes, its supernatant was collected. The chloride ion concentration in the supernatant was measured with a chloride counter (CL-7, Hiranuma Sangyo Co., Ltd.). Dunnett's test was used in comparing the control group and the test groups receiving test substance 1 in each dose. P values less than 0.05 were considered to be statistically significant.

male Wistar rats [3] = test: Water-immersion restraint stress induced ulcer model; format: in vivo, rat; conditions: for Ulcer Coefficient: Mean ± S.E.
Procedure: as §1, §2

male Wistar rats [4] = test: Antipneumonedema effect, ammonium sulfate induced, in rats; format: in vivo, rat
Procedure: Test substance 1 of 0.1 or 0.01 mg/kg in 5 mL/kg of vehicle was subcutaneously administered to male Wistar rats (7 weeks old, weight: 200-250 g). The control group received the same amount of the vehicle (physiological Saline). Thirty minutes after the administration, ammonium sulfate […] was administered to the abdominal cavity of the rats. The survival rate at 30 minutes after the administration of ammonium sulfate was calculated. Animals that had survived until 30 minutes after the administration of ammonium sulfate were killed under chloroform, and their lungs were removed to measure the weights. Regarding animals that had been dead by 30 minutes after the administration of ammonium sulfate, their lungs were removed immediately after their death to measure the weights. The lung-weight of the respective groups was compared to the lung-weight of the normal group, which received no ammonium sulfate. Based on the lung-weight measurements, the inhibitory rate of lung-weight increase of the group receiving test substance 1 as compared to that of the control group was calculated.

removed liver [5] = test: Bile amount and chloride ion in bile of removed perfused rat liver; conditions: 10 μM in Krebs-Ringer perfusate, 30 minutes, Mean ± S.E.
Procedure: Male Wistar rats were used. The common bile duct of both the test and the control groups were catheterized to collect bile under pentobarbital sodium anesthesia. After the catheter was inserted and fixed in the portal vein, Krebs-Ringer solution (pH 7.4, 37° C.) comprising sodium taurocolate (30 μmol/1) saturated with 95% O2 and 5% CO2 was infused at a constant flow rate of 4.0 mL/min/g liver weight by means of peristaltic pump. The liver was removed under perfusion. For the test group, test substance 2 was added to the Krebs-Ringer solution. Thirty minutes after the perfusion, the amount of bile of both the test group and the control group was measured. Chloride ion concentration in the bile was also measured. The amount of bile at 30 minutes after the administration of test substance 2 or vehicle was shown as relative value (%) to the amount immediately before the administration.

male Wistar rats [6] = test: Mercuric chloride induced large intestinal ulcer; format: in vivo, rat; conditions: for Gross Ulcer Area: 30 min before and 2 and 6 hours after HgCl2, Mean ± S.E.
Procedure: Mercuric chloride (HgCl2) of 4 mg/kg was intramuscularly administered to male Wistar rats (weight: 245-290 g) to induce ulcer in the large intestine. Thirty minutes before, and 2 and 6 hours after the administration of HgCl2, test substance 2 was subcutaneously administered. The control group received a vehicle. Twenty-four hours after the administration of HgCl2, the animals were bled to death under ether anesthesia. After abdominal incision, the upper portion of the ileocecal opening and the upper portion of the anus were ligated, and the large intestine region from the caecum to the rectum was removed. The removed large intestine was fixed with 1% formalin and then dissected, and the major and minor axes of ulcer were measured with a caliper under a stereoscopic microscope. The product of the major axis multiplied by the minor axis was expressed as the ulcer area. Further, the total ulcer area was calculated in each animal, which was expressed as the gross ulcer area.

Beagle dogs = test: Cardiac output in dog model of cardiac incompetence; format: in vivo; conditions: 30 minutes after administration relative to immediately before, Mean ± S.E.
Procedure: Beagle dogs (weight: 8.8-10.3 kg) were used, and under thiopental sodium and α-chloralose anesthesia, their cardiac output was guided from a FJ probe equipped on the aortic arch via a rectangular wave electromagnetic blood flow meter (MFV-3100, Nihon Koden) to a blood flow-indicating unit and recorded in a recorder. The model of cardiac incompetence was prepared in accordance with the following method. A continuous infusion of lactate Ringer solution (5 mL/body/min) having dissolved therein DL-propranolol (0.06 mg/mL) from a catheter inserted into the left femoral vein started diastolic overload. Thirty minutes later, the left anterior descendence (LAD) was ligated. […] At the time the cardiac output was reduced by at least 20% from that before the diastolic overload, the dose of methoxamine was reduced to 5 μg/kg/min and the infusion of lactate Ringer solution was reduced to 3 mL/kg/min, which was continued until the completion of experiments. Sixty to 90 minutes after the cardiac output was reduced by at least 20% and other hemodynamic parameters were stabled, test substance 2 was administered via a cannula indwelled in the duodenum. The control group received a vehicle. […]

removed liver [7] = test: Organ preservation: bile flow after 16-hour cold storage and reperfusion of rat liver; conditions: 30 minutes after reperfusion, Mean ± S.D.
Procedure: Male Wistar rats (weight: about 280 g) were anesthetized with intraperitoneal injection of pentobarbital sodium (50 mg/kg) and hepatic-portal region was exposed by abdominal midline incision. The common bile duct was cannulated and the portal stem was inserted with a 19 gauge Surflo® needle equipped with a three way stopcock. […] The liver was cut off from the tissues around it, removed outside the body and subjected to extracorporeal perfusion. The liver was subjected to a 15-minute pre-perfusion until its oxygen consumption achieved to a constant state. Then the perfusate was replaced with an organ preservative solution (University of Wisconsin solution; (U-W solution) at 4° C. Immediately after the replacement was completed, the liver connected with the three-way stopcock was removed from the perfusion cycle and the inlet was clamped. Then the liver was put in the preservative solution (U-W solution) at the same temperature and stored for 16 hours. After the 16-hour storage, the liver was reperfused with Krebs-Ringer Buffer. Thirty minutes after the reperfusion, the amount of bile flow was measured. (1) Effect of substance 2 added to the organ preservative solution (U-W solution) In the above perfusion protocol, test substance 2 at the concentration of 10 μM was added to the preservative solution (U-W solution). […]

male Wistar rats [8] = test: Amount of bile and chloride ion concentration in bile in rats after repeated oral dosing; format: in vivo, rat; conditions: 100 μg/kg oral three times a day for seven days, Mean ± S.E.
Procedure: Test substance 2: 13,14-dihydro-15-keto-16,16-difluoro-18(S)-methyl-prostaglandin E1, which is a ClC-2 channel opener was used. Test substance 2 of 100 μg/kg was orally administered to male Wistar rats (six weeks old, weight: 180-210 g) three times a day for seven days. The control group received the same amount of the vehicle (0.01% polysorbate 80 and 0.5% ethanol in distilled water). In the following morning of the final administration day (about 17 hours after the final administration), a polyethylene catheter (PE10, Becton Dickinson and Company) was inserted into the rats' common bile duct under ether anesthesia. The rats were placed in a Borrmann's cage and were left for 1 hour to awake from anesthesia. Bile discharged during one hour from one to two hours after the insertion of the catheter was collected to measure the amount of bile. Chloride ion concentration was measured with a chloride counter (CL-7, Hiranuma Sangyo Co., Ltd.). Student's t-test was used in comparing the control group and the group receiving test substance 2. P values less than 0.05 were considered to be statistically significant.

male Wistar rats [9] = test: Taurocholic acid and trypsin induced pancreatitis, serum amylase; format: in vivo, rat; conditions: 100 μg/kg subcutaneous
Procedure: Male Wistar rats (weight: 240-270 g) that had been fasted overnight were subjected to abdominal incision under pentobarbital sodium anesthesia. Then a mixed solution of 10% taurocholic acid 3 mL and 0.3% trypsin solution 0.3 mL was antidroicly infused from the bile duct duodenum opening to induce pancreatitis. Thirty minutes before, and 2 and 4 hours after the infusion of the mixed solution of taurocholic acid and trypsin, test substance 2 was subcutaneously administered. The control group received the vehicle. Six hours after the infusion of the mixed solution of taurocholic acid and trypsin, the blood was collected to measure the serum amylase activity.

## CCCCC(F)(F)C(=O)CC[C@H]1[C@H](O)CC(=O)[C@@H]1CCCCCCC(=O)O [Test Sub. 1, 13,14-dihydro-15-keto-16,16-difluoro-prostaglandin E1]
ddY male mice
  Duration of Gasping: 24.1 ± 1.9
Male white rabbit
  Chloride Ion Concentration in Lacrimal Fluid: 152.9 ± 7.7^(##) mEq/L
Male white rabbit; Schirmer's Paper
  Amount of Lacrimal Fluid: 11.5 ± 0.7 mL
Male Wistar rats [1]; 2 μg/kg oral
  Ulcer Inhibitory Rate: 44%
  Ulcer Coefficient: 27.9 ± 5.1
Male Wistar rats [2]; 10 μg/kg oral
  Amount of Intestinal Fluid: 3.3 ± 0.3 mL
  Chloride Ion Concentration in Intestinal Fluid: 110.1 ± 5.6 mEq/L
Male Wistar rats [2]; 100 μg/kg oral
  Amount of Intestinal Fluid: 5.3 ± 0.2 mL
  Chloride Ion Concentration in Intestinal Fluid: 126.6 ± 2.4 mEq/L
Male Wistar rats [3]; 30 μg/kg oral
  Ulcer Inhibitory Rate: 54.3%
  Ulcer Coefficient: 13.4 ± 2.0
Male Wistar rats [3]; 100 μg/kg oral
  Ulcer Inhibitory Rate: 85.3%
  Ulcer Coefficient: 4.3 ± 1.9
Male Wistar rats [4]; 0.01 mg/kg subcutaneous, compared to control group
  Inhibitory Rate of Lung-weight Increase: 47%
Male Wistar rats [4]; 0.1 mg/kg subcutaneous, 30 minutes after ammonium sulfate
  Surviving Rate: 60%

## CC[C@H](C)CC(F)(F)C(=O)CC[C@H]1[C@H](O)CC(=O)[C@@H]1CCCCCCC(=O)O [Test Sub. 2, 13,14-dihydro-15-keto-16,16-difluoro-18(S)-methyl-prostaglandin E1]
Removed liver [5]
  Chloride Ion Concentration in Bile: 0.353 ± 0.009 μM/min/g liver
Removed liver [5]; relative to amount immediately before administration
  Relative Amount of Bile: 126.2 ± 9.0 %
Male Wistar rats [1]; 1 μg/kg oral
  Ulcer Inhibitory Rate: 58.7%
  Ulcer Coefficient: 35.7 ± 8.3
Male Wistar rats [1]; 3 μg/kg oral
  Ulcer Inhibitory Rate: 65.3%
  Ulcer Coefficient: 30.0 ± 4.6
Male Wistar rats [1]; 10 μg/kg oral
  Ulcer Inhibitory Rate: 77.2%
  Ulcer Coefficient: 19.7 ± 4.8
Male Wistar rats [6]; 10 μg/kg subcutaneous
  Ulcer Inhibitory Rate: 54.3%
  Gross Ulcer Area: 15.2 ± 15.8 mm^2
Male Wistar rats [6]; 1000 μg/kg subcutaneous
  Ulcer Inhibitory Rate: 85.3%
  Gross Ulcer Area: 3.7 ± 8.3** mm^2
Beagle dogs; 100 μg/kg intraduodenal
  Relative Cardiac Output: 108.7 ± 0.47 %
Beagle dogs; 300 μg/kg intraduodenal
  Relative Cardiac Output: 117.8 ± 2.42 %
Removed liver [7]; 10 μM added to the perfusate during reperfusion
  Amount of Bile Flow: 2.67 ± 0.31 μL/min/g liver
Removed liver [7]; 10 μM added to the preservative solution (U-W solution)
  Amount of Bile Flow: 2.43 ± 0.10 μL/min/g liver
Male Wistar rats [8]
  Chloride Ion Concentration in Bile: 98.4 ± 1.8 mEq/L
Male Wistar rats [8]; bile collected during one hour
  Amount of Bile: 492 ± 36.7 µL
Male Wistar rats [9]; 30 min before and 2 and 4 hours after infusion, blood at six hours, Mean ± S.E.
  serum amylase: 2430 ± 417 IU/L
Male Wistar rats [9]; serum amylase
  Inhibitory Rate: 22.6%
